Measured values as given in patent US9701644B2, “Salt of nitrogen-containing heterocyclic compound or crystal thereof, pharmaceutical composition, and FLT3 inhibitor” (FUJIFILM Corporation, priority 2013, dated 2017).
≈ marks a conversion by molar mass, not a printed value. Counter-ions that a name gives are not always drawn.

Tests used:
[1] = Solubility test in water; format: physicochemical; conditions: room temperature, stirred 24 hours
Method: The compounds of Examples 1 and 3 were chosen as test compounds.
The compound A was chosen as a comparative compound.
The test compounds and the comparative compound were each added to water, and each mixture was stirred at room temperature for 24 hours. The insoluble matter was removed by filtration using a membrane filter (0.2 μm). The filtrate was analyzed by HPLC to obtain solubility.

[2] = system: MV4-11 cells; assay: Leukemic cell growth inhibition test (MV4-11); format: cell-based; conditions: MV4-11, 72 hours culture, CellTiter-Glo
Method: (§1) A leukemic cell growth inhibition test was performed by using the leukemic cell strains MV4-11 (ATCC Number, CRL-9591) and MOLM-13 (DSMZ Number, ACC554).
(§2) The leukemic cell growth inhibition test was performed by the method described below.
(§3) For the purpose of measuring growth inhibition with a test compound, the total cell count was quantified on the basis of the total cellular ATP concentration using the CellTitet-Glo (PerkinElmer) reagent that enables quantification of ATP concentration based on the luciferin-luciferase reaction. The MOLM-13 or MV4-11 cells were added to the RPMI medium containing penicillin (100 units/mL), streptomycin (100 μg/mL), and 10% FBS at a density of 2×10^5 cells/ml, and 50 μL (10,000 cells) of the mixture was inoculated to each well of a 96-well plate (Corning).
(§4) A serially diluted solution of a test compound or 0.1% DMSO (solvent control) in a volume of 50 μL was added to the cells, and then the cells were cultured for 72 hours under the standard cell proliferation conditions (37° C., 5% CO2) to allow proliferation of the cells. In order to measure the total cell proliferation, equal volume of the CellTitet-Glo reaction mixture was added to each well in accordance with the instructions attached to CellTitet-Glo, and luminescence count was quantified (relative light unit, RLU).
(§5) The RLU signal observed for the DMSO solvent control after 72 hours of culture was defined as a signal indicating 0% inhibition, and the GI50 value for the growth inhibition corresponds to a concentration of a compound that provides 50% inhibition of the total cell proliferation observed in the DMSO solvent control. Each data point was obtained from samples prepared in duplicate. The GI50 values were calculated by the non-linear regression fitting (Fit Model (205)) according to a sigmoid dose-reaction equation using the XLfit software.

[3] = Storage stability test (1), open glass bottle, 2 weeks; format: physicochemical; conditions: for storage stability / Moisture content / Purity: open glass bottle; for storage stability / change of the purity and moisture content after storage: in words; for change of the purity and moisture content after storage: storage over 2 weeks
Method: (§6) The purities are represented in terms of area % measured by high performance liquid chromatography (HPLC). The HPLC measurement was performed by using Prominence (Shimadzu) under the following conditions.
Crystals of the compounds of Examples 1 and 3 were chosen as test substances.
Each test substance (200 mg) was put into a glass bottle of an open state, and stored for 2 weeks under the storage condition 1 (25° C., 75% relative humidity), or the storage condition 2 (40° C., 75% relative humidity). Purity and moisture content of the test substance were measured before the start of the test and after the end of the test.

[4] = system: MOLM-13 cells; assay: Leukemic cell growth inhibition test (MOLM-13); format: cell-based; conditions: MOLM-13, 72 hours culture, CellTiter-Glo
Method: as §1, §2, §3, §4, §5

[5] = Storage stability test (2), double plastic bag, 4 weeks; format: physicochemical
Method: as §6
The crystals of the compound of Example 1 were chosen as test substance.
The test substance (200 mg) was put into double plastic bag, and the opening was tied up. The bag was stored for 4 weeks under the storage condition 1 (25° C., 75% relative humidity), or the storage condition 2 (40° C., 75% relative humidity). Purity and moisture content of the test substance were measured before the start of the test and after the end of the test.

[6] = storage condition 1 (25° C., 75% relative humidity), 2 weeks
[7] = storage condition 2 (40° C., 75% relative humidity), 2 weeks
[8] = storage condition 1 (25° C., 75% relative humidity), 4 weeks
[9] = storage condition 2 (40° C., 75% relative humidity), 4 weeks

Solubility [1]	GI50 ([2]; Homo sapiens, MV4-11, 72 h)	storage stability ([3]; 2 weeks)	Moisture content ([3]; before start of test)	Purity ([3]; before start of test)	Moisture content [3, 6]	Purity [3, 6]	Moisture content [3, 7]	Purity [3, 7]	change of the purity and moisture content after storage [3]	GI50 ([4]; Homo sapiens, MOLM-13, 72 h)	Moisture content ([5]; before start of test)	Purity ([5]; before start of test)	Moisture content [5, 8]	Purity [5, 8]	Moisture content [5, 9]	Purity [5, 9]	GI50 [2]	GI50 [4]	SMILES
20 µg/mL (≈ 37.7 µM)																			CCCNc1nc(Nc2ccc(C#N)cc2)ncc1C#CCCCNC(=O)[C@H](C)N(C)C(=O)/C=C/CN(C)C [Compound A, (S,E)-N-(1-((5-(2-((4-cyanophenyl)amino)-4-(propylamino)pyrimidin-5-yl)pent-4-yn-1-yl)amino)-1-oxopropan-2-yl)-4-(dimethylamino)-N-methylbut-2-enamide]
70000 µg/mL	0.52 nM	superior	0.5%	99.6%	0.2%	99.6%	0.2%	99.6%	little change	1.47 nM	0.2%	99.4%	0.2%	99.4%	0.2%	99.4%			CCCNc1nc(Nc2ccc(C#N)cc2)ncc1C#CCCCNC(=O)[C@H](C)N(C)C(=O)/C=C/CN(C)C [Example 1, succinate of the compound A]
			1.7%	99.7%	3.2%	99.6%	2.1%	99.6%									0.6 nM	1.5 nM	CCCNc1nc(Nc2ccc(C#N)cc2)ncc1C#CCCCNC(=O)[C@H](C)N(C)C(=O)/C=C/CN(C)C [Example 2, succinate of the compound A]
890 µg/mL		superior							little change								0.6 nM	1.6 nM	CCCNc1nc(Nc2ccc(C#N)cc2)ncc1C#CCCCNC(=O)[C@H](C)N(C)C(=O)/C=C/CN(C)C [Example 3, fumarate of the compound A]
